Test results taken from US20230338380A1, “Stable Immediate Release Tablet and Capsule Formulations of 1-((2S,5R)-5-((7H-Pyrrolo[2,3-D]Pyrimidin-4-YL)Amino)-2-Methylpiperidin-1-YL)Prop-2-EN-1-One” (Pfizer R&D UK Limited, priority 2019, published 2023).

Test: Dynamic vapor sorption (DVS) of filler excipients
Type: physicochemical
Settings: excipient alone; humidity of 90% RH
Excerpt: Also noted were the stability results for experimental formulation E, blended with lactose anhydrous. […] Lactose anhydrous was used in blend E rather than lactose monohydrate due to concerns regarding the impact of water upon the degradation of PF-06651600-15. To further explore the hygroscopic properties of lactose monohydrate, dynamic vapor sorption (DVS) traces were generated for both lactose anhydrous and lactose monohydrate (FIG. 24). The results for both were similar as the mass increased less than 2% at a humidity of 90% RH.

OC[C@H]1O[C@@H](O[C@H]2[C@H](O)[C@@H](O)C(O)O[C@@H]2CO)[C@H](O)[C@@H](O)[C@H]1O (stereo partly shown) [lactose anhydrous]
Mass increase (DVS): ~1.1%
